Assay results taken from the supplement of paper PMC13386468.

What was measured:
Assay in all cases: IC50 for competition of protein binding to Kinobeads
Conditions in all cases: assay detail: Kinobeads competition in P. falciparum blood-stage lysate
UniProt Q8ILW8 = biological target: UniProt Q8ILW8
UniProt Q8I574 = biological target: UniProt Q8I574
UniProt Q8I291 = biological target: UniProt Q8I291
UniProt O97247 = biological target: UniProt O97247
UniProt Q8ILT5 = biological target: UniProt Q8ILT5
UniProt Q9TY94 = biological target: UniProt Q9TY94
UniProt Q8I367 = biological target: UniProt Q8I367
UniProt Q8IDJ4 = biological target: UniProt Q8IDJ4
UniProt B9ZSI3 = biological target: UniProt B9ZSI3
UniProt Q8III5 = biological target: UniProt Q8III5
UniProt Q8IL57 = biological target: UniProt Q8IL57
UniProt Q8I487 = biological target: UniProt Q8I487
UniProt Q8IAR6 = biological target: UniProt Q8IAR6
UniProt Q8IIW5 = biological target: UniProt Q8IIW5
UniProt Q8ID31 = biological target: UniProt Q8ID31
UniProt Q8IBS5 = biological target: UniProt Q8IBS5
UniProt Q8IC33 = biological target: UniProt Q8IC33
UniProt Q8IKA0 = biological target: UniProt Q8IKA0
UniProt Q8I3I6 = biological target: UniProt Q8I3I6
UniProt O97240 = biological target: UniProt O97240
UniProt Q8IL13 = biological target: UniProt Q8IL13
UniProt Q8I395 = biological target: UniProt Q8I395
UniProt Q8IIV1 = biological target: UniProt Q8IIV1
UniProt O77390 = biological target: UniProt O77390
UniProt Q8IKH8 = biological target: UniProt Q8IKH8
UniProt Q8IDQ9 = biological target: UniProt Q8IDQ9
UniProt C0H4S5 = biological target: UniProt C0H4S5
UniProt Q8I616 = biological target: UniProt Q8I616
UniProt Q8IJM0 = biological target: UniProt Q8IJM0
UniProt Q8IHR6 = biological target: UniProt Q8IHR6
UniProt Q8I2W2 = biological target: UniProt Q8I2W2
UniProt Q8IDZ6 = biological target: UniProt Q8IDZ6
UniProt Q8I274 = biological target: UniProt Q8I274
UniProt Q8IM71 = biological target: UniProt Q8IM71
UniProt Q8I2F2 = biological target: UniProt Q8I2F2
UniProt Q8ILW6 = biological target: UniProt Q8ILW6
UniProt Q8IBN5 = biological target: UniProt Q8IBN5
UniProt Q8I2G2 = biological target: UniProt Q8I2G2
UniProt Q8I2S6 = biological target: UniProt Q8I2S6
UniProt Q8IDS6 = biological target: UniProt Q8IDS6
UniProt Q8IIF0 = biological target: UniProt Q8IIF0
UniProt C0H517 = biological target: UniProt C0H517
UniProt Q8I468 = biological target: UniProt Q8I468
UniProt Q8IDG3 = biological target: UniProt Q8IDG3
UniProt Q8IBP0 = biological target: UniProt Q8IBP0
UniProt Q8IES0 = biological target: UniProt Q8IES0
UniProt Q8I207 = biological target: UniProt Q8I207
UniProt Q8IIR0 = biological target: UniProt Q8IIR0
UniProt Q8I3Y8 = biological target: UniProt Q8I3Y8
UniProt C6KT03 = biological target: UniProt C6KT03
UniProt Q8IHP1 = biological target: UniProt Q8IHP1

Measured: IC50
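Also: native unpurified kinases from lysate captured on beads bearing immobilized kinase inhibitors, with bead-bound kinases quantified by mass spectrometry across compound doses.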

Sequence of UniProt O97240 (O97240 whole entry): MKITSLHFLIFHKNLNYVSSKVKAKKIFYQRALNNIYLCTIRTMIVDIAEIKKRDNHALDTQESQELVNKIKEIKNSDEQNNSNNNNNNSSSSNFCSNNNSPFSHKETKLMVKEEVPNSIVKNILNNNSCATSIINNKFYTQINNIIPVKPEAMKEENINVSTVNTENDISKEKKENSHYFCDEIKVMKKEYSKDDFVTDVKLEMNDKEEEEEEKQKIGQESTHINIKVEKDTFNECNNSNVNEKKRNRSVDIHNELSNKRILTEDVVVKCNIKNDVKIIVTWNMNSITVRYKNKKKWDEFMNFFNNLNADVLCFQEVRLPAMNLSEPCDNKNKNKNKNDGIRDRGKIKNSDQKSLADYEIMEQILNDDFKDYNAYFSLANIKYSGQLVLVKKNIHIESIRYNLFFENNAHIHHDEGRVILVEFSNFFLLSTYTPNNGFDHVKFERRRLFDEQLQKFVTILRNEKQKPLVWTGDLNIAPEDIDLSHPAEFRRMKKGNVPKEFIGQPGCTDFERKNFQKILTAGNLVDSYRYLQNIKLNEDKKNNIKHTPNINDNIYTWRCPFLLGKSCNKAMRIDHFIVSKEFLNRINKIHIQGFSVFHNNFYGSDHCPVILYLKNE
Sequence of UniProt Q8IDQ9 (Q8IDQ9 whole entry): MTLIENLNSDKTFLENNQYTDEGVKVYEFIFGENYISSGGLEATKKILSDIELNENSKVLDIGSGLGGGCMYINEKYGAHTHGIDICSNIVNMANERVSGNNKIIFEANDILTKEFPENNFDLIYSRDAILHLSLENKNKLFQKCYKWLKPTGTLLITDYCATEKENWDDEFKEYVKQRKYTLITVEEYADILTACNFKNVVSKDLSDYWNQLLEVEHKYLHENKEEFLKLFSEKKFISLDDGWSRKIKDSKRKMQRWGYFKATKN
Sequence of UniProt Q8ILW6 (Q8ILW6 whole entry): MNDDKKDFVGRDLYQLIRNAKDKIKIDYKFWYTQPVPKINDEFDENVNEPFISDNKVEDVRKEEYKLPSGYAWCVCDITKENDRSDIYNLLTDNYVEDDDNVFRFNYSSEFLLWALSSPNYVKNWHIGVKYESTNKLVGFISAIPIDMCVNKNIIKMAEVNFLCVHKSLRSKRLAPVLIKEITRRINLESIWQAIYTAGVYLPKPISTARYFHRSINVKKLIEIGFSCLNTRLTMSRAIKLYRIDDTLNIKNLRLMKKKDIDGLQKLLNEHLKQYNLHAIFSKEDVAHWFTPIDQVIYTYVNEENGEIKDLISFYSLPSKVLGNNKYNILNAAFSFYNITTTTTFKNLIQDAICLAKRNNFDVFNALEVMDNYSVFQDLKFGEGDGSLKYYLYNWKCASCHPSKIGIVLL
Sequence of UniProt Q8I395 (Q8I395 whole entry): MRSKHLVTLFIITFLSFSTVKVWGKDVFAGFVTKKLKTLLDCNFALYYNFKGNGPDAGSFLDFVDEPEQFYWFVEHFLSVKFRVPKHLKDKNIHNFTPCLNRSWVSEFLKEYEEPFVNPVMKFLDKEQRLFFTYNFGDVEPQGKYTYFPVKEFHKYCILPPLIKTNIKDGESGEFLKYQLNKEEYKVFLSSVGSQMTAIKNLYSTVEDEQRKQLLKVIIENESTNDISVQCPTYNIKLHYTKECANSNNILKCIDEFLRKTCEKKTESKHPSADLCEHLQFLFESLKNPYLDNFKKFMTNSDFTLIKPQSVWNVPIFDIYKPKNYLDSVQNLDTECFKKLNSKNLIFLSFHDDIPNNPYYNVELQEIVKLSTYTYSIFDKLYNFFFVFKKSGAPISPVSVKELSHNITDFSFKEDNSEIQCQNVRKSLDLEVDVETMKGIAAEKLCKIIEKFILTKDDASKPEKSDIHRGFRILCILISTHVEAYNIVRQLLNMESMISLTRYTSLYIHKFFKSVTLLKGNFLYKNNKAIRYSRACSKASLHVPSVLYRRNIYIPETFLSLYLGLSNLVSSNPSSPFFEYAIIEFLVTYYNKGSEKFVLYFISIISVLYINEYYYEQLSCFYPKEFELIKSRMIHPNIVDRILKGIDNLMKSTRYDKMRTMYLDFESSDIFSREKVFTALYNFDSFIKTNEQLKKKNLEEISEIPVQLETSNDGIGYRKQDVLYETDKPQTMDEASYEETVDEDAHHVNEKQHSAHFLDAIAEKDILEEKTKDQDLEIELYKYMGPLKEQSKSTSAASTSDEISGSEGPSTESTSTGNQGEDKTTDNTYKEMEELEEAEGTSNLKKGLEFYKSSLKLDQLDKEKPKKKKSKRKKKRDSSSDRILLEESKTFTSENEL
Sequence of UniProt Q8ILT5 (Q8ILT5 whole entry): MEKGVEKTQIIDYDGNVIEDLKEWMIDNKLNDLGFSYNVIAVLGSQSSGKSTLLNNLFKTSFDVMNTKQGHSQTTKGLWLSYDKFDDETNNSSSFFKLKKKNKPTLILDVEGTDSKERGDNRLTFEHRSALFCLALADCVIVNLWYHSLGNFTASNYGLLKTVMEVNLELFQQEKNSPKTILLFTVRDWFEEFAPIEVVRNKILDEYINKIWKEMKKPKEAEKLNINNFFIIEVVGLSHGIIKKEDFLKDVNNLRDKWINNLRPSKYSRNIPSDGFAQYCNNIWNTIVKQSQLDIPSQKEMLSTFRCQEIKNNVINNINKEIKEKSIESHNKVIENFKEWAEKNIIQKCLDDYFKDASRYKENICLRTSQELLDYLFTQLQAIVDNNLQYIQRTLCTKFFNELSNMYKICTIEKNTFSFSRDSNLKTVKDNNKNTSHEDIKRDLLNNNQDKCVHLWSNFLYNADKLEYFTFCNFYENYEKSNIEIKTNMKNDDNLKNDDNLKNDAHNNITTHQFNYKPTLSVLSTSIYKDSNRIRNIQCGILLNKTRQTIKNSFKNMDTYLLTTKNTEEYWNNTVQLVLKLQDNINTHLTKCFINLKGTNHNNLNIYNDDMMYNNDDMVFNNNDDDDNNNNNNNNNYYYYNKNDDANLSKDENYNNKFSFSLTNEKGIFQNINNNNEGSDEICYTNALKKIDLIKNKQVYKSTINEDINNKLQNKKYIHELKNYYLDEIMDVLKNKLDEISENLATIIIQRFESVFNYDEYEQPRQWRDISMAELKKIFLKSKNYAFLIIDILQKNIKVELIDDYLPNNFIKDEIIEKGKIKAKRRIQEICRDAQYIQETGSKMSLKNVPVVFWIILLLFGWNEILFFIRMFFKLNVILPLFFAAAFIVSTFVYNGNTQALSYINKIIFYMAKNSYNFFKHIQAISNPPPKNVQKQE
Sequence of UniProt Q8I3Y8 (Q8I3Y8 whole entry): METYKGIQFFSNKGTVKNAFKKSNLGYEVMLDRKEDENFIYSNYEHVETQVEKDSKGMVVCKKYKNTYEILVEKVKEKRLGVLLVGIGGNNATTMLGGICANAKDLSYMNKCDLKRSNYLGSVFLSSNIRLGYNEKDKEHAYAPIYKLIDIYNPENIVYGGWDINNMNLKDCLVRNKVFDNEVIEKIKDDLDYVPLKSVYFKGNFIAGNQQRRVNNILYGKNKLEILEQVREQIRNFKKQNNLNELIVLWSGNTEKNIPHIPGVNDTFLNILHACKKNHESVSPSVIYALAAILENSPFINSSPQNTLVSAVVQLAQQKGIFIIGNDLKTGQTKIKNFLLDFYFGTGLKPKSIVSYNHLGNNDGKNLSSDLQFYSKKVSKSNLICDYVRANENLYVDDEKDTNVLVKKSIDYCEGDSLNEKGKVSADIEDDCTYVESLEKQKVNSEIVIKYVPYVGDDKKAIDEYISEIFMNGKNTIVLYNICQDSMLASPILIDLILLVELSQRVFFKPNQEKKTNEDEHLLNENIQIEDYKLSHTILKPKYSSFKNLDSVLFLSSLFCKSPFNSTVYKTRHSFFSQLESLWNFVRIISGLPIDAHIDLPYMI
Sequence of UniProt Q8IBS5 (Q8IBS5 whole entry): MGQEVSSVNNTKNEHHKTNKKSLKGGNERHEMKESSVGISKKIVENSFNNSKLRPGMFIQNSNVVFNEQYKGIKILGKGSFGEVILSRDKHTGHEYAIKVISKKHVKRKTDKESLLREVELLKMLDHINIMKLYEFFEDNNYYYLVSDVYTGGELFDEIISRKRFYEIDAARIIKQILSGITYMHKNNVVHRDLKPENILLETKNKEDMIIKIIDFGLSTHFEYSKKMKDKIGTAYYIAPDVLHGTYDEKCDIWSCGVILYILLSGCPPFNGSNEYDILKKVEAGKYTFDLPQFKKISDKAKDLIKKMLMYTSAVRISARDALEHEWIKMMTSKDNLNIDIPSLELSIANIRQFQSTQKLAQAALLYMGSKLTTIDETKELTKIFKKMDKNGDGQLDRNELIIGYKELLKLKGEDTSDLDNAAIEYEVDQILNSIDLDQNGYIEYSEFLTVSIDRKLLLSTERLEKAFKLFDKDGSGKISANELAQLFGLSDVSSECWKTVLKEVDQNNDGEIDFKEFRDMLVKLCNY

O=c1[nH]c2ccc(Cl)cc2c(NC2CN3CCC2CC3)c1-c1nc2ccccc2[nH]1 (stereo unspecified) [CHIR-124]
> 20 µM: all assays above
